The values below come from PubChem BioAssay (NCI).

Among the test systems are MOLT-4 leukemia; UO-31 renal; T-47D breast; COLO 205 colon; SF-295 CNS; HCC-2998 colon; BT-549 breast; MDA-MB-231 breast; RXF 393 renal; M14 melanoma; 786-0 renal; CCRF-CEM leukemia; HOP-62 NSCLC; EKVX NSCLC; SNB-19 CNS; OVCAR-8 ovarian; SF-539 CNS.
Common to all, as to experiment: NCI-60 cell line screen, 48 h

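These data come from cells grown in 96-well plates and exposed to compound for 48 hours at five concentrations. The concentration for full growth arrest is given as TGI.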

Turning to `CC1=[N+]([O-])C(C)(C)N(N=O)C1(C)C`, the TGI in the test with MOLT-4 leukemia, in the test on UO-31 renal, with T-47D breast, in the test with COLO 205 colon, in the test with SF-295 CNS and with HCC-2998 colon was more than 10 µM each time. Also, the TGI in the test with BT-549 breast, in the test on MDA-MB-231 breast, with RXF 393 renal, in the test with M14 melanoma, with 786-0 renal and with CCRF-CEM leukemia was more than 10 µM in each case. The TGI in the test with HOP-62 NSCLC, in the test on EKVX NSCLC, in the test with SNB-19 CNS and in the test with OVCAR-8 ovarian was more than 10 µM throughout.

Consider `CC(C)/C(Cl)=N/OC(=O)Nc1cccc(C(F)(F)F)c1`, for which the TGI in the test on MOLT-4 leukemia came out at 4.42 µM; with UO-31 renal, 22.9 µM; with T-47D breast, 14.1 µM; with COLO 205 colon, 3.46 µM; in the test with SF-295 CNS it was 33 µM; in the test on HCC-2998 colon, 30 µM. Further, the TGI with BT-549 breast stood at 15.6 µM; with MDA-MB-231 breast it was 17 µM; with RXF 393 renal, 18.9 µM; with M14 melanoma it was 13.3 µM; in the test on 786-0 renal, 7.52 µM; in the test on CCRF-CEM leukemia it was 13.8 µM. The TGI with HOP-62 NSCLC is 32.1 µM; in the test on EKVX NSCLC, 7.1 µM; with SNB-19 CNS, 34 µM; with OVCAR-8 ovarian it was 31.8 µM.

As for `CCN1C(=S)n2cccc2C1CC(=O)c1ccc(Cl)cc1` (stereo not given), the TGI was 90.1 µM in the test with MOLT-4 leukemia; more than 100 µM with UO-31 renal; more than 100 µM in the test with T-47D breast; more than 100 µM in the test on SF-295 CNS; more than 100 µM in the test with HCC-2998 colon; more than 100 µM in the test on BT-549 breast. Also, the TGI in the test with MDA-MB-231 breast, in the test with RXF 393 renal, in the test with M14 melanoma, in the test with 786-0 renal, with HOP-62 NSCLC and with EKVX NSCLC was more than 100 µM throughout. In addition, the TGI in the test with SNB-19 CNS and in the test on OVCAR-8 ovarian was more than 100 µM in each case.

For `CCOC(=O)N1CC2(C)C=CC1C(C(=O)OC)C2` (stereo not given), the TGI with MOLT-4 leukemia, in the test on UO-31 renal, with T-47D breast, in the test with COLO 205 colon, with SF-295 CNS and with HCC-2998 colon was more than 100 µM each time. Besides, the TGI with BT-549 breast, in the test on MDA-MB-231 breast, with RXF 393 renal, in the test with M14 melanoma, in the test with 786-0 renal and in the test on CCRF-CEM leukemia was more than 100 µM each time. Moreover, the TGI in the test on HOP-62 NSCLC, in the test on EKVX NSCLC, with SNB-19 CNS and in the test with OVCAR-8 ovarian was more than 100 µM throughout.

For the compound `c1ccc(CSc2ccccc2CN2CCN(Cc3ccccc3SCc3ccccc3)CCN(Cc3ccccc3SCc3ccccc3)CC2)cc1`, the TGI with MOLT-4 leukemia was found to be 6.26 µM; in the test on UO-31 renal, 7.66 µM; with T-47D breast, 4.81 µM; in the test on COLO 205 colon, 2.21 µM; in the test with SF-295 CNS, 2.45 µM; in the test with HCC-2998 colon, 2.39 µM. Moreover, the TGI was 4.1 µM with BT-549 breast; 3.16 µM in the test on MDA-MB-231 breast; 2.93 µM in the test with M14 melanoma; 3.01 µM with 786-0 renal; more than 100 µM in the test on CCRF-CEM leukemia; 3.82 µM with HOP-62 NSCLC. Besides, the TGI in the test with SF-539 CNS is 3.54 µM; with EKVX NSCLC, 3.39 µM; in the test on SNB-19 CNS, 5.19 µM; in the test with OVCAR-8 ovarian it was 2.67 µM.

Regarding `O=C1c2sc(-c3ccc(F)cc3)cc2-n2cccc21`, the TGI with MOLT-4 leukemia was more than 100 µM; with UO-31 renal, more than 100 µM; with T-47D breast it was more than 100 µM; in the test on COLO 205 colon it was more than 100 µM; in the test with SF-295 CNS, 93.9 µM; in the test on HCC-2998 colon, more than 100 µM. In addition, the TGI in the test on BT-549 breast is more than 100 µM; in the test with MDA-MB-231 breast, 86.3 µM; in the test on RXF 393 renal, 73.1 µM; in the test with M14 melanoma, more than 100 µM; in the test on 786-0 renal, 32.2 µM; in the test on CCRF-CEM leukemia it was more than 100 µM. The TGI was 37.3 µM in the test with HOP-62 NSCLC, more than 100 µM in the test on EKVX NSCLC, 39.6 µM in the test with SNB-19 CNS and more than 100 µM with OVCAR-8 ovarian.

Turning to `NC(=O)NC(=O)CCC(NS(=O)(=O)c1ccccc1)C(=O)NC(N)=O` (stereo not given), the TGI in the test with MOLT-4 leukemia, with UO-31 renal, in the test on T-47D breast, in the test with COLO 205 colon, with SF-295 CNS and in the test on HCC-2998 colon was more than 100 µM each time. Moreover, the TGI in the test with BT-549 breast, in the test with MDA-MB-231 breast, in the test with M14 melanoma, with 786-0 renal, with CCRF-CEM leukemia and with HOP-62 NSCLC was more than 100 µM in each case. The TGI with SF-539 CNS, with EKVX NSCLC, in the test on SNB-19 CNS and with OVCAR-8 ovarian was more than 100 µM throughout.
